Measurements: ChEMBL document CHEMBL4052625, “The evaluation of 1,4-benzoquinones as inhibitors of human monoamine oxidase” (Eur J Med Chem, 2017)

Columns and labels:
[1] = molecular target: T1, Amine oxidase [flavin-containing] A (Homo sapiens, UniProt P21397); test: Inhibition of recombinant human MAO-A expressed in baculovirus infected BTI insect cell microsomes using kynuramine as substrate after 20 mins by fluorescence spectroscopy
T1 sequence (P21397 whole entry): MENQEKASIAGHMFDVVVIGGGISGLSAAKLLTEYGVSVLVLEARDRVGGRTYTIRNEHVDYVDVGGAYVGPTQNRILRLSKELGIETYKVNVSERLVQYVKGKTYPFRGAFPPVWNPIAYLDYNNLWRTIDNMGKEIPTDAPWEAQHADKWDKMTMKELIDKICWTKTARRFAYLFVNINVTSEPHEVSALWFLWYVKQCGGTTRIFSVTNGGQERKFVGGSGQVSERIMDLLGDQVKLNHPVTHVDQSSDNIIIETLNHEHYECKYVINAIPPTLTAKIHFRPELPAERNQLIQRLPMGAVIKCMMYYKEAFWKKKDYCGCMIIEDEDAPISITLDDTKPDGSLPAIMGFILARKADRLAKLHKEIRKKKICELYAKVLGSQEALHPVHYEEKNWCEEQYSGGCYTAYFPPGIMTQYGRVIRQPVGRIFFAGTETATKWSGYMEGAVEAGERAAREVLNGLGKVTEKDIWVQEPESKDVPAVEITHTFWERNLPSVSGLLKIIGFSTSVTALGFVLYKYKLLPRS

[2] = molecular target: T2, Amine oxidase [flavin-containing] B (Homo sapiens, UniProt P27338); test: Inhibition of recombinant human MAO-B expressed in baculovirus infected BTI insect cell microsomes using kynuramine as substrate after 20 mins by fluorescence spectroscopy
T2 sequence (P27338 whole entry): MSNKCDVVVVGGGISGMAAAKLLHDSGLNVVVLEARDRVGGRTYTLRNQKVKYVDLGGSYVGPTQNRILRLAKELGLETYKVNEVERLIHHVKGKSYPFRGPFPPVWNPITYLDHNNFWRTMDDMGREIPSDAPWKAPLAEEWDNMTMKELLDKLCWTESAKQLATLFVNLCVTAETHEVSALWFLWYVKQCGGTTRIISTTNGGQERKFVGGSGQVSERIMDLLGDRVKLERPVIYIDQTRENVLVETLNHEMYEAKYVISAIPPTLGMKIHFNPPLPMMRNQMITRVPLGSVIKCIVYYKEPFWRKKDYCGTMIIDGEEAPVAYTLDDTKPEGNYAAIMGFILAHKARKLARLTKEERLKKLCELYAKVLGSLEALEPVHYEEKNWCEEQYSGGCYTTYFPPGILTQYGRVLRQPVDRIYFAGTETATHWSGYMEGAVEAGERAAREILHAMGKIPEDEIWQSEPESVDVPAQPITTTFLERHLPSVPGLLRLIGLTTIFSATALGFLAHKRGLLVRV

Homo sapiens = organism: Homo sapiens; test: Selectivity index, ratio of IC50 for recombinant human MAO-B to IC50 for recombinant human MAO-A expressed in baculovirus infected BTI insect cell microsomes
[3] = molecular target: T1, Amine oxidase [flavin-containing] A; test: Irreversible inhibition of recombinant human MAO-A expressed in baculovirus infected BTI insect cell microsomes assessed as residual activity using kynuramine as substrate at 13 uM preincubated for 15 mins with subsequent dialysis for 24 hrs followed by substrate addition measured after 20 mins by fluorescence spectroscopy relative to negative control; conditions: read-out: INH
[4] = molecular target: T1, Amine oxidase [flavin-containing] A; test: Competitive inhibition of human brain mitochondria MAO-A using kynuramine as substrate by Lineweaver-Burk analysis
[5] = molecular target: T2, Amine oxidase [flavin-containing] B; test: Non-competitive inhibition of human brain mitochondria MAO-B using kynuramine as substrate by Lineweaver-Burk analysis
[6] = molecular target: T2, Amine oxidase [flavin-containing] B; test: Inhibition of human liver mitochondria MAO-B using 1-methyl-4-phenyl-1,2,3,6-tetrahydropyridine as substrate after 15 mins by spectrophotometric analysis
[7] = molecular target: T1, Amine oxidase [flavin-containing] A; test: Inhibition of human gastrointestinal mitochondria MAO-A using 1-methyl-4-(1-methylpyrrol-2-yl)-1,2,3,6-tetrahydropyridine as substrate after 30 mins by spectrophotometric analysis

| Structure (SMILES) | IC50 [1] [µM] | IC50 [2] [µM] | Ratio IC50 (Homo sapiens) | activity at 13 µM [3] [%] | Ki [4] [µM] | Ki [5] [µM] | Ki [6] [µM] | Ki [7] [µM] |
| --- | --- | --- | --- | --- | --- | --- | --- | --- |
| O=C1C=CC(=O)C(Cc2ccccc2)=C1 | 5.37 | 23.2 | 4.3 | – | – | – | – | – |
| C#CCN(C)Cc1ccccc1 [PARGYLINE] | – | – | – | 0.1 to 1.6 | – | – | – | – |
| O=C1C=CC(=O)C(C2CCCC2)=C1 | 5.84 | 17.8 | 3 | – | – | – | – | – |
| O=C1C=CC(=O)C=C1 [BENZOQUINONE] | 4.82 | 10.2 | 2.1 | – | 9.62 | 20.3 | – | – |
| O=C1C=CC(=O)C(OCc2ccccc2)=C1 | 13.2 | 3.69 | 0.3 | – | – | – | – | – |
| CC1=C(C)C(=O)c2cc(C)ccc2C1=O | – | – | – | – | – | – | 6 | 3 |
| O=C1C=CC(=O)C(c2ccccc2)=C1 | 5.03 | 7.87 | 1.6 | – | – | – | – | – |
